Assays:
[1] = sugar alcohol assessment of salivary flow and time in mouth (FIG. 4); format: in vivo; conditions: test subjects using a mint vs at rest with no mint; preliminary results
Description: In addition to evaluating additives for their ability to provide tooth strengthening properties, the inventors also investigated a number of sugar alcohols, individually and in combination, for their ability to increase salivary flow and TIM. The investigation included dual layer formulations as well as compressed tablets. Greater salivary flow is desirable to create calcium delivery and increased TIM provides greater delivery time for active ingredients to have an effect. In FIG. 4, the blue bars represent the average salivary flow difference (in ml/min) between test subjects at rest with no mint versus test subjects using a mint. The green bars represent the average dissolution time in seconds/1000.

[2] = in vitro study of arginine, CGP and HPC, enamel microhardness (FIG. 3); set-up: species or system bovine; conditions: after 10 days of exposure
Description: The in vitro study used bovine tooth enamel slabs which were polished and then subjected to an initial tooth softening step using lactic acid. An initial microhardness measurement was then made on each enamel specimen. The enamel specimens were subjected to four pH cycles per day, each cycle comprising a thirty-minute acid demineralization step followed by a twenty-minute lozenge remineralization step. Final microhardness measurements were taken on each specimen after 10 days of treatment and after 20 days of treatment. A fluoride dentifrice and a no-lozenge control sample were analyzed according to the same procedure for comparison purposes.
The latter two alternatives, chitosan and biofilm dispersing agents, were ruled out because they lacked approval for food use. Arginine was selected as the leading candidate for further evaluation. A new in vitro study was undertaken to evaluate arginine alone and in combination with CGP and HPC. CGP alone, CGP with HPC and fluoride were also investigated. The testing procedure was substantially the same as the in vitro study for calcium salts.
The height of each bar represents the change in the KHN as calculated by ΔKHN=KHN10-DAY−KHNINITIAL.

Compound: OC[C@@H](O)[C@@H](O)CO [erythritol]
- average salivary flow difference [1]: stimulated salivary flow

Compound: Cl.N=C(N)NCCC[C@H](N)C(=O)O [arginine HCl]
- change in enamel microhardness (ΔKHN) [2]: did not produce significant results

Compound: calcium glycerophosphate [CGP]
- change in enamel microhardness (ΔKHN) [2]: increase in microhardness that was very similar to the sample for fluoride

Compound: N=C(N)NCCC[C@H](N)C(=O)O [Arginine]
- change in enamel microhardness (ΔKHN) [2]: did not produce significant results
